Test results from patent publication US7262164B2, “Polymeric thiol-linked prodrugs employing benzyl elimination systems” (Enzon, Inc., priority 2001, dated 2007).
Marks after values point to notes of the source that are not given here.

Tests used:
[1] = tested on: Lung M109 syngeneic solid tumors; assay: In vivo M109 tumor model; set-up: species or system Balb/C mice; conditions: i.v. day 1 & 4; for T/C (%) at Day 18: control median tumor volume approx. 1000 mm^3; for T/C (%) at Day 25: control median tumor volume approx. 2000 mm^3
Experimental: M109 cells (NCI), derived from donor mice, were grown and expanded in tissue culture for in vivo implantation. Cells were grown in EMEM with 10% FBS and 1% streptomycin/penicillin media, kept in an incubator at 37° C. with 5% CO2and split twice a week. Cells were trypsinized, harvested, washed, counted and prepared in PBS for transport to the vivarium. Cells were kept on ice until implantation was conducted with minimum lag time. A cell suspension of approximately 5×10^6 cells/mL was used. Balb/C mice were implanted subcutaneous with 100 μL of the above cell suspension (Day 0). Treatments were administered intravenously on Day 1 and Day 4. Compound doses were based on the content of 6-MP. Body weight and tumor volume were then measured twice weekly until the group's median tumor volume exceeded 2000 mm^3. The tumor volume for each mouse was determined by measuring two dimensions with calipers and calculated using the formula: tumor volume=(length×width^2)/2. Drug effects were determined by comparing tumor growth in treated versus control (no vehicle) mice. Two types of endpoints were used as the basis for comparison: (a) the percent difference in tumor volume (% T/C), measured when the control group's median tumor volume reached approximately 800-1100 mm^3 (exponential growth phase) and (b) again when the control group's median tumor volume was approximately 2000 mm^3.

[2] = Solubility in water; format: physicochemical
[3] = tested on: murine leukemia cell line L1210/O; assay: In vivo L1210 tumor model (ascites); set-up: species or system mouse; conditions: Q2d×6, IP, intralipid
Source text: 6-MP and pro-drug forms of 6-MP were screened for in vivo activity against the murine leukemia cell line L1210/O (mouse, lymphocytic leukemia). The cell line was obtained from Southern Research Institute (Birmingham, Ala.) and grown in DMEM supplemented with 10% horse serum. L 1210/O cells were subcultured two times per week and log phase cultures (viability≧95%) were used for all in vivo experiments. Female CD2F1 mice (Taconic Farms, Germantown, N.Y.) at 7-8 weeks of age were used for study. Following one week of acclimation, mice were implanted i.p. with L1210/0 cells (5×10^5 cells/mouse) at designated day 0. The mice were randomly assigned to experimental groups (8-10/group). The groups included control, 6-MP and PEG-6-MP conjugates. 6-MP was solubilized in 3% DMSO and suspended in intralipid and administered Q2d×6, IP. PEG-6-MP was dissolved in phosphate buffer (pH 5.8) and administered Q4d×3, IV. Control groups received vehicle (intralipid or phosphate buffer). The mice were monitored for up to 40 days, and the treatment was evaluated as percentage of increase in life span (ILS).

[4] = tested on: P388/0 cell lines; assay: Cytotoxicity assay, Alamar Blue cell growth; format: cell-based; conditions: Mus musculus, 72 h, P388/0 cells, 3 days
Experimental: Cell Lines and Cytotoxicity Assays. Studies using P388/0 cell lines for IC50 (drug concentration inhibiting growth of cells by 50%) were maintained and conducted as previously reported. Briefly, for IC50 determination, cells were seeded into the microwell plates at a density of 2×10^3 cells per 50 μL per well. Plates were incubated at 37° C. in a humidified incubator with 5% CO2 for 3 days. Cell growth was measured by the addition of 10 μL/well of Alamar Blue (Alamar Biosciences, Inc., Sacramento, Calif.) and the plates were incubated a further 4 hours at 37° C. The IC50values for each compound were determined from absorbance versus dilution factor plots. All cell cultures for animal implantation were maintained at 37° C. in a humidified atmosphere of 5% CO2/[…] and subcultured once a week. All cell lines were periodically tested for Mycoplasma and were Mycoplasma free.

[5] = total dose 200 mg/kg (6-MP content)

SMILES	Anti-tumor activity, inhibiting the growth of M109 solid tumors (in words) ([1]; Balb/C mice)	T/C (%) at Day 18 [1, 5] [%]	T/C (%) at Day 25 [1, 5] [%]	solubility [2] [µg/mL]	% ILS (percent increase in life span) ([3]; total dose 90 mg/kg) [%]	% ILS (percent increase in life span) ([3]; total dose 240 mg/kg)	T/C (%) at Day 18 ([1]; total dose 40 mg/kg) [%]	T/C (%) at Day 25 ([1]; total dose 40 mg/kg) [%]	IC50 [4] [nM]
Sc1ncnc2nc[nH]c12 [6-MP (1), 6-mercaptopurine]	ineffective	144	184	< 100	31.8	52.5* %	–	–	–
Nc1nc2nc[nH]c2c(=S)[nH]1 [6-TG (2), 6-thioguanine]	–	–	–	–	–	–	82	78	360
